Experimental data from article PMC3669315, “Dissociations in the Effects of β2-Adrenergic Receptor Agonists on cAMP Formation and Superoxide Production in Human Neutrophils: Support for the Concept of Functional Selectivity” (PLoS ONE, 2013).
Like-named read-outs stand apart in the source and are kept apart here.

Assays:
[1] = target: T1, β2-adrenergic receptor (β2AR) on human neutrophils (Homo sapiens, UniProt P07550); assay: inhibition of fMLP-stimulated superoxide production, ferricytochrome c reduction; assay type: cell-based; conditions: agonist potency, downstream functional read-out, intact neutrophils, […] fMLP, cytochalasin B, read-out: O2 ^•- assay (β2AR on neutrophil granulocytes) / pIC50 ± S.E.M. (IC50 in μM) (converted)
T1 construct: gene ADRB2; native full-length receptor in intact neutrophils isolated from venous blood or buffy coat of healthy volunteers
Text: inhibition of fMLP-stimulated superoxide production, ferricytochrome c reduction on β2-adrenergic receptor (β2AR) on human neutrophils

[2] = target: T1, β2-adrenergic receptor (β2AR) on human neutrophils; assay: cAMP accumulation, HPLC-MS/MS; assay type: cell-based; conditions: read-out: cAMP assay (β2AR on neutrophil granulocytes) / pEC50 ± S.E.M. (EC50 in μM) (converted), intact neutrophils, […] IBMX, […] °C

T1 sequence (P07550 whole entry): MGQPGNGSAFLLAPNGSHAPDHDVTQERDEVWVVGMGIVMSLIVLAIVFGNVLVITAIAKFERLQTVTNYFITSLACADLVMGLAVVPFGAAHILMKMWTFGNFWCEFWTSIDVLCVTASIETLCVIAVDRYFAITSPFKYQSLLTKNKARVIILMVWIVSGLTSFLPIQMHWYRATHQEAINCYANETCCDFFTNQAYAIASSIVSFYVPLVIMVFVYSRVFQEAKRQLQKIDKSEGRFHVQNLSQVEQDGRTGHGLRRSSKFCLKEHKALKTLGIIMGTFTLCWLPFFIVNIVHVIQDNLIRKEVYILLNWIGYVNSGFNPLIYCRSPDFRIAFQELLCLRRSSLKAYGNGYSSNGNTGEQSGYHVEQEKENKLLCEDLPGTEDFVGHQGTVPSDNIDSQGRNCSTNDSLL

SMILES	IC50 [1] [µM]	EC50 ([2]; agonist mode, table prints pEC50 <[…] as ( […]), text: no agonistic activity up to […]) [µM]	EC50 ([2]; partial agonist) [µM]
CC(C)NCC(O)c1ccc(Cl)c(Cl)c1 (racemic) [DCI, (±)-dichlorisoproterenol]	39.8	> 100	
CC(CCc1ccc(O)cc1)NCCc1ccc(O)c(O)c1 (racemic) [DOB, (±)-dobutamine]			13.8
